This is an account of results in US20180273534A1, “PYRAZOLOPYRIDINE SULFONAMIDES AS NEMATICIDES” (BAYER CROPSCIENCE AKTIENGESELLSCHAFT, priority 2014, published 2018).

Where “and” joins values, the source holds several entries; their conditions need not be identical. Equal entries are not always repeated.

The assay relates to Meloidogyne incognita. The assay is described as follows: Meloidogyne incognita test (sand, salad seedlings, gall formation). Type of assay: in vivo. As to conditions: application rate 20 ppm, after 14 days, 100% = no galls, 0% = galls equal to untreated control. The method, then:
Meloidogyne Incognita—Test
Solvent: 125.0 parts by weight of acetone
To produce a suitable preparation of active compound, 1 part by weight of active compound is mixed with the stated amount of solvent, and the concentrate is diluted with water to the desired concentration.
Vessels are filled with sand, a solution of the active ingredient, a suspension containing eggs and larvae of the southern root-knot nematode (Meloidogyne incognita) and salad seeds. The salad seeds germinate and the seedlings grow. Galls develop in the roots.
After 14 days the nematicidal activity is determined on the basis of the percentage of gall formation. 100% means no galls were found and 0% means the number of galls found on the roots of the treated plants was equal to that in untreated control plants.
In the case of `O=C(NS(=O)(=O)c1ccccc1Cl)c1cc2cc(C(F)(F)F)ccn2n1` [Example I-1, N-[(2-chlorophenyl)sulfonyl]-5-(trifluoromethyl)pyrazolo[1,5-a]pyridine-2-carboxamide], the “nematicidal activity on the basis of the percentage of gall formation” value is 100%.

For the molecule `O=C(NS(=O)(=O)c1cc(C(F)(F)F)ccc1Cl)c1cc2cc(C(F)(F)F)cc(Cl)n2n1` [Example I-72], the “nematicidal activity on the basis of the percentage of gall formation” value was determined as 100%.

`CCOc1ccc(Cl)c(S(=O)(=O)NC(=O)c2cc3cc(C(F)(F)F)ccn3n2)c1` [Example I-34]: the “nematicidal activity on the basis of the percentage of gall formation” value came out at 100%.

As for `Cc1ccccc1S(=O)(=O)NC(=O)c1cc2c(Cl)cc(C(F)(F)F)cn2n1` [Example I-10], the “nematicidal activity on the basis of the percentage of gall formation” value worked out at 90%.

As to `CCc1ccc(Cl)c(S(=O)(=O)NC(=O)c2cc3cc(C(F)(F)F)cc(Cl)n3n2)c1` [Example I-62], the “nematicidal activity on the basis of the percentage of gall formation” value is reported as 100%.

As for `O=C(NS(=O)(=O)c1c(F)cccc1Cl)c1cc2cc(Cl)cc(Cl)n2n1` [Example I-67], the “nematicidal activity on the basis of the percentage of gall formation” value stood at 90%.

As for `COc1ccc(Br)c(S(=O)(=O)NC(=O)c2cc3cc(Cl)cc(Cl)n3n2)c1` [Example I-69], the “nematicidal activity on the basis of the percentage of gall formation” value was 100%.

For `O=C(NS(=O)(=O)c1c(Cl)cccc1Cl)c1cc2ccc(C(F)(F)F)cn2n1` [Example I-52], the “nematicidal activity on the basis of the percentage of gall formation” value came to 90%.

With `CC(C)Sc1cccc(Cl)c1S(=O)(=O)NC(=O)c1cc2cc(C(F)(F)F)ccn2n1` [Example I-41], the “nematicidal activity on the basis of the percentage of gall formation” value turned out to be 100%.

As for `O=C(NS(=O)(=O)c1ccc(Cl)cc1)c1cc2cc(C(F)(F)F)cc(Cl)n2n1` [Example I-20], the “nematicidal activity on the basis of the percentage of gall formation” value is recorded as 90%.

Turning to `COc1ccc(F)c(S(=O)(=O)NC(=O)c2cc3cc(C(F)(F)F)ccn3n2)c1` [Example I-38], the “nematicidal activity on the basis of the percentage of gall formation” value amounted to 100%.

For the molecule `CCCOc1ccc(Cl)c(S(=O)(=O)NC(=O)c2cc3cc(Cl)cc(Cl)n3n2)c1` [Example I-58], the “nematicidal activity on the basis of the percentage of gall formation” value was determined as 100%.

With `CC(C)Nc1cccc(F)c1S(=O)(=O)NC(=O)c1cc2cc(C(F)(F)F)ccn2n1` [Example I-42], the “nematicidal activity on the basis of the percentage of gall formation” value turned out to be 100%.

In the case of `O=C(NS(=O)(=O)c1cccc(Cl)c1)c1cc2cc(C(F)(F)F)cc(Cl)n2n1` [Example I-30], the “nematicidal activity on the basis of the percentage of gall formation” value was 100% and 90%.

For the molecule `O=C(NS(=O)(=O)c1c(F)cccc1Cl)c1cc2cc(C(F)(F)F)cc(Cl)n2n1` [Example I-65], the “nematicidal activity on the basis of the percentage of gall formation” value was 100%.

As to `O=C(NS(=O)(=O)C1CC1)c1cc2c(Cl)cc(C(F)(F)F)cn2n1` [Example I-17], the “nematicidal activity on the basis of the percentage of gall formation” value was 100%.

As for `CCc1ccc(Cl)c(S(=O)(=O)NC(=O)c2cc3cc(C(F)(F)F)ccn3n2)c1` [Example I-36], the “nematicidal activity on the basis of the percentage of gall formation” value worked out at 100%.

For `CCSc1cccc(Cl)c1S(=O)(=O)NC(=O)c1cc2cc(C(F)(F)F)cc(Cl)n2n1` [Example I-63], the “nematicidal activity on the basis of the percentage of gall formation” value is 100%.

As to `COc1ccc(Cl)c(S(=O)(=O)NC(=O)c2cc3cc(C(F)(F)F)ccn3n2)c1` [Example I-27], the “nematicidal activity on the basis of the percentage of gall formation” value was found to be 100%.

Regarding `O=C(NS(=O)(=O)c1ccccc1Cl)c1cc2cc(C(F)(F)F)cc(Cl)n2n1` [Example I-19], the “nematicidal activity on the basis of the percentage of gall formation” value is listed as 100%.

As for `CCS(=O)(=O)NC(=O)c1cc2cc(C(F)(F)F)cc(Cl)n2n1` [Example I-32], the “nematicidal activity on the basis of the percentage of gall formation” value stood at 90%.

`CCc1ccc(Cl)c(S(=O)(=O)NC(=O)c2cc3cc(Cl)cc(Cl)n3n2)c1` [Example I-59]: the “nematicidal activity on the basis of the percentage of gall formation” value was found to be 100%.

For the molecule `COc1ccc(F)c(S(=O)(=O)NC(=O)c2cc3cc(Cl)cc(Cl)n3n2)c1` [Example I-68], the “nematicidal activity on the basis of the percentage of gall formation” value was 100%.

In the case of `CCc1ccc(C)c(S(=O)(=O)NC(=O)c2cc3cc(C(F)(F)F)cc(Cl)n3n2)c1` [Example I-77], the “nematicidal activity on the basis of the percentage of gall formation” value turned out to be 100%.

As for `COc1ccc(F)c(S(=O)(=O)NC(=O)c2cc3cc(C(F)(F)F)cc(Cl)n3n2)c1` [Example I-74], the “nematicidal activity on the basis of the percentage of gall formation” value is listed as 100%.

`O=C(NS(=O)(=O)c1c(Cl)cccc1Cl)c1cc2c(Cl)cc(C(F)(F)F)cn2n1` [Example I-18]: the “nematicidal activity on the basis of the percentage of gall formation” value was 100%.

On to `CSc1ccc(Cl)c(S(=O)(=O)NC(=O)c2cc3cc(Cl)cc(Cl)n3n2)c1` [Example I-60], for which the “nematicidal activity on the basis of the percentage of gall formation” value is on record as 100%.

On to `O=C(NS(=O)(=O)c1cc(Cl)ccc1Cl)c1cc2cc(C(F)(F)F)ccn2n1` [Example I-26], for which the “nematicidal activity on the basis of the percentage of gall formation” value is on record as 100%.

Regarding `O=C(NS(=O)(=O)c1cc(Cl)ccc1Cl)c1cc2cc(C(F)(F)F)cc(Cl)n2n1` [Example I-22], the “nematicidal activity on the basis of the percentage of gall formation” value is reported as 100%.

Turning to `O=C(NS(=O)(=O)c1cc(C(F)(F)F)ccc1Cl)c1cc2cc(C(F)(F)F)ccn2n1` [Example I-33], the “nematicidal activity on the basis of the percentage of gall formation” value amounted to 100%.

As to `CCCOc1ccc(Cl)c(S(=O)(=O)NC(=O)c2cc3cc(C(F)(F)F)cc(Cl)n3n2)c1` [Example I-45], the “nematicidal activity on the basis of the percentage of gall formation” value stood at 100%.

For `CCSc1cccc(Cl)c1S(=O)(=O)NC(=O)c1cc2cc(C(F)(F)F)ccn2n1` [Example I-40], the “nematicidal activity on the basis of the percentage of gall formation” value is listed as 100%.

Regarding `CSc1cccc(Cl)c1S(=O)(=O)NC(=O)c1cc2cc(C(F)(F)F)cc(Cl)n2n1` [Example I-71], the “nematicidal activity on the basis of the percentage of gall formation” value stood at 100%.

`O=C(NS(=O)(=O)c1c(F)cccc1Cl)c1cc2cc(C(F)(F)F)ccn2n1` [Example I-43]: the “nematicidal activity on the basis of the percentage of gall formation” value is 100%.

On to `O=C(NS(=O)(=O)c1cc(Cl)ccc1Cl)c1cc2ccc(C(F)(F)F)cn2n1` [Example I-51], for which the “nematicidal activity on the basis of the percentage of gall formation” value stood at 90%.

For the molecule `CC(C)Sc1cccc(Cl)c1S(=O)(=O)NC(=O)c1cc2cc(C(F)(F)F)cc(Cl)n2n1` [Example I-64], the “nematicidal activity on the basis of the percentage of gall formation” value is reported as 100%.

For `O=C(NS(=O)(=O)c1c(Cl)cccc1Cl)c1cc2cc(C(F)(F)F)cc(Cl)n2n1` [Example I-21], the “nematicidal activity on the basis of the percentage of gall formation” value turned out to be 100%.

For `O=C(NS(=O)(=O)c1ccccc1OC(F)(F)F)c1cc2c(Cl)cc(C(F)(F)F)cn2n1` [Example I-5], the “nematicidal activity on the basis of the percentage of gall formation” value is listed as 90%.

With `CCc1ccc(C)c(S(=O)(=O)NC(=O)c2cc3cc(Cl)cc(Cl)n3n2)c1` [Example I-75], the “nematicidal activity on the basis of the percentage of gall formation” value is 100%.

With `CC(C)Nc1cccc(F)c1S(=O)(=O)NC(=O)c1cc2cc(Cl)cc(Cl)n2n1` [Example I-66], the “nematicidal activity on the basis of the percentage of gall formation” value is reported as 90%.

Turning to `O=C(NS(=O)(=O)C1CC1)c1cc2cc(C(F)(F)F)ccn2n1` [Example I-29], the “nematicidal activity on the basis of the percentage of gall formation” value is 90%.

Turning to `COc1ccccc1S(=O)(=O)NC(=O)c1cc2c(Cl)cc(C(F)(F)F)cn2n1` [Example I-8], the “nematicidal activity on the basis of the percentage of gall formation” value was 90%.

With `CSc1cccc(Cl)c1S(=O)(=O)NC(=O)c1cc2cc(Cl)cc(Cl)n2n1` [Example I-76], the “nematicidal activity on the basis of the percentage of gall formation” value was 90%.

On to `O=C(NS(=O)(=O)c1cccc(Cl)c1)c1cc2c(Cl)cc(C(F)(F)F)cn2n1` [Example I-12], for which the “nematicidal activity on the basis of the percentage of gall formation” value was 90%.

Take `CCOc1ccc(Cl)c(S(=O)(=O)NC(=O)c2cc3cc(Cl)cc(Cl)n3n2)c1` [Example I-57]: the “nematicidal activity on the basis of the percentage of gall formation” value is on record as 100%.

On to `O=C(NS(=O)(=O)c1ncc(C(F)(F)F)cc1Cl)c1cc2c(Cl)cc(C(F)(F)F)cn2n1` [Example I-2], for which the “nematicidal activity on the basis of the percentage of gall formation” value is reported as 90%.

Take `O=C(NS(=O)(=O)c1cc2c(cc1Cl)OC(F)(F)O2)c1cc2c(Cl)cc(C(F)(F)F)cn2n1` [Example I-14]: the “nematicidal activity on the basis of the percentage of gall formation” value was 90%.

`CCCOc1ccc(Cl)c(S(=O)(=O)NC(=O)c2cc3cc(C(F)(F)F)ccn3n2)c1` [Example I-35]: the “nematicidal activity on the basis of the percentage of gall formation” value was determined as 100%.

For `COc1ccc(Br)c(S(=O)(=O)NC(=O)c2cc3cc(C(F)(F)F)cc(Cl)n3n2)c1` [Example I-70], the “nematicidal activity on the basis of the percentage of gall formation” value is 100%.

On to `COc1ccc(Br)c(S(=O)(=O)NC(=O)c2cc3cc(C(F)(F)F)ccn3n2)c1` [Example I-37], for which the “nematicidal activity on the basis of the percentage of gall formation” value is listed as 100%.

Regarding `CSc1cccc(Cl)c1S(=O)(=O)NC(=O)c1cc2cc(C(F)(F)F)ccn2n1` [Example I-39], the “nematicidal activity on the basis of the percentage of gall formation” value is recorded as 100%.

In the case of `O=C(NS(=O)(=O)c1ccc(Cl)cc1)c1cc2c(Cl)cc(C(F)(F)F)cn2n1` [Example I-9], the “nematicidal activity on the basis of the percentage of gall formation” value is 100% and 90%.

For `CCc1ccc(C)c(S(=O)(=O)NC(=O)c2cc3cc(C(F)(F)F)ccn3n2)c1` [Example I-78], the “nematicidal activity on the basis of the percentage of gall formation” value was 100%.

Regarding `O=C(NS(=O)(=O)c1cc(C(F)(F)F)ccc1Br)c1cc2cc(C(F)(F)F)ccn2n1` [Example I-73], the “nematicidal activity on the basis of the percentage of gall formation” value is listed as 100%.

With `COc1ccc(Cl)c(S(=O)(=O)NC(=O)c2cc3cc(Cl)cc(Cl)n3n2)c1` [Example I-49], the “nematicidal activity on the basis of the percentage of gall formation” value is 90%.

For `O=C(NS(=O)(=O)c1c(Cl)cccc1Cl)c1cc2cc(C(F)(F)F)ccn2n1` [Example I-25], the “nematicidal activity on the basis of the percentage of gall formation” value turned out to be 100%.
